Like-named read-outs stand apart in the source and are kept apart here.
Columns and labels:
Pseudomonas aeruginosa [1] = test: Clearance of bacteria in vitro by alveolar macrophages (PA); format: cell-based
Procedure: Human alveolar macrophages were purified from individual BAL samples by centrifugation and seeded onto 6-well tissue culture plates. After incubation for 2 h, non-adherent cells were removed and the adherent cells were incubated with R, S-sulforaphane (5 μM; LKT Laboratories, Inc., St. Paul, Minn.) and or DMSO in RPMI 1640 culture medium with 10% FBS and 1% penicillin-streptomycin (Invitrogen, Carlsbad, Calif.). After 16-20 h, adherent cells were scraped, suspended in RPMI 1640 culture media and plated onto 96-well tissue culture plates for bacterial phagocytosis and clearance assays. […] For MARCO antibody-depletion, alveolar macrophages were incubated with human anti-MARCO antibody (1 μg/ml; (Hycult, Uden, The Netherlands) for 4 hours prior to bacterial challenge.
Sputum isolates of nontypeable H. influenzae and P. aeruginosa obtained from patients with COPD at the Department of Veterans Affairs, Western New York Healthcare System were used (S. Sethi, N. Evans, B. J. Grant, T. F. Murphy, N Engl J Med 347, 465 (Aug. 15, 2002); C. S. Berenson, M. A. Garlipp, L. J. Grove, J. Maloney, S. Sethi, J Infect Dis 194, 1375 (Nov. 15, 2006); T. F. Murphy et al., Am J Respir Crit Care Med 177, 853 (Apr. 15, 2008); T. F. Murphy, A. L. Brauer, A. T. Schiffmacher, S. Sethi, Am J Respir Crit Care Med 170, 266 (Aug. 1, 2004)). For bacterial growth, H. influenzae was cultured on chocolate agar or grown in brain heart infusion broth supplemented with 20 μg/mlNAD and 10 μg/ml hemin at 35° C. in 5% CO2. P. aeruginosa was cultured on LB agar plates or in LB broth at 37° C. For FITC-labeling of bacteria, heat inactivated PA and NTHI (10^9 CFU/ml) were resuspended in 1 ml of labeling buffer (0.1 M NaHCO3, pH 9.2) and incubated with fluorescein isothiocyanate (FITC) (Sigma) under constant stiffing in the dark at room temperature for 1 h. Finally, bacteria were washed three times with PBS and dialyzed overnight against PBS. FITC-labeled bacteria were resuspended with PBS at a concentration of 10^9/ml.
After treatment, macrophages (10^5 cells) were incubated with bacteria (PA or NTHI) for 4 h. Subsequently, 100 μL of cell free culture medium was aseptically plated and cultured on tryptose blood and or chocolate agar plates at 37° C. The number of bacterial colonies was counted after 24 h.

Pseudomonas aeruginosa [2] = conditions: 0.5 mg/mouse/day nebulizer, three days, 4 hours after PA, compared to vehicle
Procedure: The efficacy of sulforaphane to improve bacterial phagocytosis and clearance in the lungs of mice exposed to cigarette smoke was determined. After 6 months or 1 week of CS or air exposure, mice were treated with sulforaphane and or vehicle (0.5 mg/mouse/day) for three consecutive days using an Aeroneb® nebulizer (Aerogen, Inc., Galway, Ireland). Mice were challenged intranasally with Pseudomonas aeruginosa 24 hours after the last dose of sulforaphane, and bacterial burden in BALF was analyzed 4 hours later.
C57BL/6J mice were housed under controlled conditions for temperature and humidity, using a 12-hour light/dark cycle. At 8 weeks of age, mice were exposed to CS for (2.5 h/day for 5 days/week) for 1 week or 6 months using a machine that produces cigarette smoke (TE-10, Teague Enterprises) and reference cigarettes (2R4F) with a total suspended particle concentration of 250 mg/m^3 as previously described (T. E. Sussan et al., Proc Natl Acad Sci USA, (Dec. 22, 2008)). Following exposure to CS, mice were inoculated with PA or NTHI at a dose of 10^3 CFU in 50 μl of PBS intranasally. […]
BAL fluid analysis and cell counts with differential staining were carried out as described previously (T. Rangasamy et al., J Clin Invest 114, 1248 (November, 2004)). […] After 24 h, the number of CFU was counted.

HDAC2 = test: Posttranslational modification of HDAC2 in alveolar macrophages (immunoblot, DAN, biotin-switch); format: cell-based, human
Procedure: S-nitrosylation of proteins was analyzed by anti-SNO antibody, biotin switch assay, and or 2,3-diaminonapthalene (DAN) assay. […] Detail methodology is described in supplementary data.
Macrophage cell or lung tissue extracts were prepared by using 100 μL of immunoprecipitation buffer (50 mM Tris-HCl, pH 8.0, 150 mM NaCl, 1.0% Triton X-100, 0.5% NP-40, 0.1% SDS, 0.5% deoxycholate, and complete protease inhibitor cocktail) from Roche (Morristown, N.J.). The lysis mixture was incubated on ice for 15 minutes and microcentrifuged for 10 minutes at 4° C. Extracts were precleared with 20 μL protein A/G sepharose beads (a 50:50 mix) from Thermo scientific (Rockford, Ill.) and 2 μg of normal IgG. After microcentrifugation, 20 μL of protein A/G sepharose conjugated with 5 μg of antibody was used to precipitate HDAC2 (Santa Cruz Biotechnology, Santa Cruz, Calif.) overnight at 4° C. with rotation. The immune complexes were pelleted with gentle centrifugation, washed twice with 1 mL of immunoprecipitation buffer, and divided equally for the final wash for the activity assay and immunoblotting. For the HDAC assay, immunoprecipitates were resuspended in the activity assay buffer (50 mM TrisHCl, pH 8.0; 10% glycerol; 1 mM dithiothreitol; 0.1 mM EDTA, complete protease inhibitor cocktail). For HDAC2-specific western blotting, immune complexes were washed three times with the immunoprecipitation buffer and finally resuspended in Laemmli buffer for the SDS-PAGE.
For HDAC2-specific nitrosylation detection, cells were lysed in buffer (50 mM Tris-HCl, pH 8.0, 150 mM NaCl, 1% Nonidet P-40, 0.5% deoxycholic acid, 0.1% SDS). […] The pellets were resuspended in 500 μL of PBS.
This assay was performed in the dark.
The Image J program was used for densitometry analyses.

[3] = GSNO-exposed alveolar macrophages
[4] = nuclear immunopurified HDAC2, compared with vehicle

C[S+]([O-])CCCCN=C=S (stereo not shown) [sulforaphane]
clearance of Pseudomonas aeruginosa (decrease in CFU in culture medium) (Pseudomonas aeruginosa [1]; COPD alveolar macrophages, compared to vehicle, 4 h with bacteria): 40-95%
bacterial clearance (Pseudomonas aeruginosa [1]; alveolar macrophages from non-COPD subjects): significantly enhanced bacterial clearance
bactericidal activity towards Pseudomonas aeruginosa (Pseudomonas aeruginosa [1]; cell-free medium with sulforaphane alone): no bactericidal activity
bacterial burden in lungs (Pseudomonas aeruginosa [2]; 1 week CS): significantly reduced bacterial burden
bacterial burden in lungs (Pseudomonas aeruginosa [2]; 6 months CS): significantly reduced bacterial burden
S-nitrosylation of HDAC2 (HDAC2; 2,3-diaminonaphthalene and biotin-switch assays): reduced
levels of NO-Tyr HDAC2 (HDAC2; [3]): decreased the levels of both NO-Tyr HDAC2 and SNO-HDAC2
levels of SNO-HDAC2 (HDAC2; [3]): decreased the levels of both NO-Tyr HDAC2 and SNO-HDAC2
ability to reduce the levels of SNOHDAC2 protein (HDAC2; GSNO-exposed alveolar macrophages in the presence of buthionine sulfoximine): ablated
S-nitrosylation of HDAC2 (SNO-HDAC2) (HDAC2; anti-SNO antibody immunoblot): significantly reduced
tyrosine nitration of HDAC2 (nitrotyrosine-HDAC2) (HDAC2; immunopurified HDAC2 from alveolar macrophages, compared with vehicle): Significant reductions
serine phosphorylation of HDAC2 (HDAC2; [4]): Significant reductions
ubiquitination of HDAC2 (HDAC2; [4]): Significant reductions

— US20130039928A1, “COMPOSITIONS AND METHODS FOR REVERSING CORTICOSTEROID RESISTANCE OR TREATING RESPIRATORY INFECTIONS” (priority 2010, published 2013)
